Measurements published in patent US6552080B1, “Fungicidal compounds having a fluorovinyl-or fluoropropenyl-oxyphenyloxime moiety and process for the preparation thereof” (Korea Research Institute of Chemical Technology, priority 1999, dated 2003).
Where two headings read alike, the source gives them in different places.

Columns and labels:
[1] = test system: Rhizoctonia solani AG-1; assay: Fungicidal activity against Rice Sheath Blight (RSB) disease; settings: for RSB (Fungicidal Activities, C.V.): Rice Sheath Blight
Experimental: To examine fungicidal activity of the compounds of the present invention, each of the compounds listed in Table 3 and 4 was dissolved in 10% acetone to a concentration of 250 ppm, and Tween-20 was added thereto to a concentration of 250 or 500 ppm. 50 ml of the resulting solution was sprayed on leaves of a host plant. The plant was kept at room temperature for 24 hours to let the solvent evaporate, and then, a pathogenic fungus was inoculated thereonto. The plant was held in a humidity chamber for 24 hours, transferred to an plant growth room kept at 20 to 27° C. and a relative humidity of 60 to 80% and kept to induce disease. […] This procedure was repeated twice for each test. 10% Acetone solution containing 250 ppm of Tween-20 was used as a control.
The fungicidal activity of the compound of the present invention is repressed by a control value (C.V.) calculated as; [formula]
Rhizoctonia solani AG-1 was cultured on a PDA medium (potato 200 g, dextrose 20 g, agar 20 g and distilled water 1 ? for 3 days and the agar disc(diameter 0.6 cm) was inoculated and cultured on sterilized wheat bran medium in a 1 L bottle at 26 to 28° C. for 7 days. A mycelial mass was ground using a homogenizer, inoculated uniformly on soil of a pot wherein a Nakdong rice plant having 2 or 3 leaves and an height of 5 cm grew, and kept in humidity polyvinyl chamber for 5 days to induce RSB. L.A. on a leaf sheath was measured to calculate an C.V.

[2] = test system: Pyricularia oryzae Carvara KA301; type: in vivo; settings: for RCV (Fungicidal Activities, C.V.): Rice Blast
[3] = test system: Erysiphae graminis; assay: Fungicidal activity against Barley Powdery Mildew (BPM) disease; type: in vivo; settings: for BPM (Fungicidal Activities, C.V.): Barley Powdery Mildew
[4] = test system: Phytophthora infestans; type: in vivo; settings: for TLB (Fungicidal Activities, C.V.): Tomato Late Blight
[5] = test system: Botrytis cinerae; assay: Fungicidal activity against Cucumber Gray Mold Rot (CGM) disease; type: in vivo; settings: for CGM (Fungicidal Activities, C.V.): Cucumber Gray Mold Rot; for Fungicidal Activities CGM (C.V.): 50 ppm
[6] = test system: Puccinia recondita; assay: Fungicidal activity against Wheat Leaf Rust (WLR) disease; type: in vivo; settings: for WLR (Fungicidal Activities, C.V.): Wheat Leaf Rust

SMILES	RSB (Fungicidal Activities, C.V.) ([1]; concentration 10 ppm) [%]	RSB (Fungicidal Activities, C.V.) ([1]; concentration 50 ppm) [%]	RCV (Fungicidal Activities, C.V.) ([2]; concentration 2 ppm) [%]	RCV (Fungicidal Activities, C.V.) ([2]; concentration 10 ppm) [%]	RCV (Fungicidal Activities, C.V.) ([2]; concentration 50 ppm) [%]	BPM (Fungicidal Activities, C.V.) ([3]; concentration 2 ppm) [%]	BPM (Fungicidal Activities, C.V.) ([3]; concentration 10 ppm) [%]	BPM (Fungicidal Activities, C.V.) ([3]; concentration 50 ppm) [%]	TLB (Fungicidal Activities, C.V.) ([4]; concentration 50 ppm) [%]	CGM (Fungicidal Activities, C.V.) ([5]; concentration 50 ppm) [%]	WLR (Fungicidal Activities, C.V.) ([6]; concentration 2 ppm) [%]	WLR (Fungicidal Activities, C.V.) ([6]; concentration 10 ppm) [%]	WLR (Fungicidal Activities, C.V.) ([6]; concentration 50 ppm) [%]	Fungicidal Activities RSB (C.V.) ([1]; 50 ppm) [%]	Fungicidal Activities RCV (C.V.) ([2]; 2 ppm) [%]	Fungicidal Activities RCV (C.V.) ([2]; 50 ppm) [%]	Fungicidal Activities BPM (C.V.) ([3]; 2 ppm) [%]	Fungicidal Activities BPM (C.V.) ([3]; 50 ppm) [%]	Fungicidal Activities TLB (C.V.) ([4]; 50 ppm) [%]	Fungicidal Activities CGM (C.V.) [5] [%]	further results
CNC(=O)/C(=N/OC)c1ccccc1CON=C(C)c1cccc(OC(F)=Cc2ccccc2)c1 [Compound 77]	57	100	100	100	100	100	100	100	80	85	100	100	100								RSB (Fungicidal Activities, C.V.) ([1]; concentration 2 ppm): 40%; TLB (Fungicidal Activities, C.V.) ([4]; concentration 2 ppm): 50%; TLB (Fungicidal Activities, C.V.) ([4]; concentration 10 ppm): 88%; CGM (Fungicidal Activities, C.V.) ([5]; concentration 2 ppm): 21%; CGM (Fungicidal Activities, C.V.) ([5]; concentration 10 ppm): 36%
CNC(=O)C(=NOC)c1ccccc1CON=C(C)c1cccc(OC(F)=C(c2ccccc2)C(F)(F)F)c1 [Compound 191]														75	100	100	100	100	60	68	Fungicidal Activities RSB (C.V.) ([1]; 2 ppm): 35%; Fungicidal Activities TLB (C.V.) ([4]; 2 ppm): 0%; Fungicidal Activities WLR (C.V.) ([6]; 2 ppm): 99%; Fungicidal Activities WLR (C.V.) ([6]; 50 ppm): 100%
CON=C(C(=O)OC)c1ccccc1CON=C(C)c1cccc(OC(F)=C(c2ccc(F)cc2)C(F)(F)F)c1 [Compound 183]														100	99	100	100	100	50	56	Fungicidal Activities RSB (C.V.) ([1]; 2 ppm): 20%; Fungicidal Activities TLB (C.V.) ([4]; 2 ppm): 12%; Fungicidal Activities WLR (C.V.) ([6]; 2 ppm): 99%; Fungicidal Activities WLR (C.V.) ([6]; 50 ppm): 100%
COC=C(C(=O)OC)c1ccccc1CON=C(C)c1cccc(OC(F)=Cc2ccc(F)cc2)c1 [Compound 51]	88	90		99	100		100	100	97	52		100	100								
CCc1ccc(C=C(F)Oc2cccc(C=NOCc3ccccc3C(=NOC)C(=O)NC)c2)cc1 [Compound 33]		17	97		96	0		100	0	0	10		96								
CON=C(C(=O)OC)c1ccccc1CON=Cc1cccc(OC(F)=Cc2ccc(OC)cc2)c1 [Compound 26]		77			95			100	90	77			93								
CNC(=O)C(=COC)c1ccccc1CON=C(C)c1cccc(OC(F)=Cc2ccc(C)cc2)c1 [Compound 57]		47	95		99	0		98	0	8	27		98								
CON=C(C(=O)OC)c1ccccc1CON=C(C)c1cccc(OC(F)=C(c2cccc(C(F)(F)F)c2)C(F)(F)F)c1 [Compound 188]														55	76	71	91	100	40	0	Fungicidal Activities RSB (C.V.) ([1]; 2 ppm): 0%; Fungicidal Activities TLB (C.V.) ([4]; 2 ppm): 0%; Fungicidal Activities WLR (C.V.) ([6]; 2 ppm): 66%; Fungicidal Activities WLR (C.V.) ([6]; 50 ppm): 95%
CCc1ccc(C=C(F)Oc2cccc(C=NOCc3ccccc3C(=COC)C(=O)OC)c2)cc1 [Compound 6]		75	8	58	99	97	99	100	33	44	98	100	100								
CNC(=O)C(=NOC)c1ccccc1CON=C(C)c1cccc(OC(F)=C(c2cc(C)cc(C)c2)C(F)(F)F)c1 [Compound 194]														64	95	100	0	98	0	16	Fungicidal Activities WLR (C.V.) ([6]; 2 ppm): 20%; Fungicidal Activities WLR (C.V.) ([6]; 50 ppm): 98%
CNC(=O)C(=NOC)c1ccccc1CON=Cc1cccc(OC(F)=Cc2ccc(F)cc2)c1 [Compound 37]		29	98		100	42		100	0	0	37		98								
CON=C(C(=O)OC)c1ccccc1CON=C(C)c1cccc(OC(F)=C(c2cc(Cl)cc(Cl)c2)C(F)(F)F)c1 [Compound 186]														50	73	83	86	100	0	25	Fungicidal Activities RSB (C.V.) ([1]; 2 ppm): 15%; Fungicidal Activities TLB (C.V.) ([4]; 2 ppm): 0%; Fungicidal Activities WLR (C.V.) ([6]; 2 ppm): 66%; Fungicidal Activities WLR (C.V.) ([6]; 50 ppm): 99%
COC=C(C(=O)OC)c1ccccc1CON=C(C)c1cccc(OC(F)=Cc2cccc(C)c2)c1 [Compound 41]	70	95	98	100	100	100	100	100	96	51	99	100	100								RSB (Fungicidal Activities, C.V.) ([1]; concentration 2 ppm): 55%; TLB (Fungicidal Activities, C.V.) ([4]; concentration 2 ppm): 6%; TLB (Fungicidal Activities, C.V.) ([4]; concentration 10 ppm): 25%
COC=C(C(=O)OC)c1ccccc1CON=C(C)c1cccc(OC(F)=C(c2ccc(C)cc2)C(F)(F)F)c1 [Compound 152]	60	90	86	97	100	95	100	100	0	44	86	98	100								RSB (Fungicidal Activities, C.V.) ([1]; concentration 2 ppm): 45%
COC=C(C(=O)OC)c1ccccc1CON=C(C)c1cccc(OC(F)=C(c2ccccc2)C(F)(F)F)c1 [Compound 150]	65	92	83	100	100	100	100	100	50	44	95	100	100								RSB (Fungicidal Activities, C.V.) ([1]; concentration 2 ppm): 55%
COC=C(C(=O)OC)c1ccccc1CON=C(C)c1cccc(OC(F)=Cc2ccc(OC)cc2)c1 [Compound 48]		75	41	96	100	100	100	100	95	64	99	100	100								
